Literature values, collected in patent US20130338098A1, “Topical Analgesic Compositions Containing Aliphatic Polyamines and Methods of Using Same” (Dermal Therapy (Barbados) Inc., priority 2000, published 2013).

Settings: orally, intravenously, intraperitoneally, and intramuscularly

## NCCCCN [putrescine, 1,4-diaminobutane]
  Toxicity: very low toxicity
